Laboratory results published in patent US20250171499A1, “PHARMACEUTICAL FORMULATIONS AND METHODS FOR THE TREATMENT OF METABOLIC AND LIVER DISORDERS” (Viking Therapeutics, Inc., priority 2022, published 2025).

How the values were obtained:
[1] = Pharmacokinetics study of formulations, subcutaneous dosing; type: in vivo; conditions: Formulation 2; SC 0.2 mg/kg; male cynomolgus monkeys
Description: Formulation 1 included the compound in a vehicle of 0.1% bovine serum albumin in phosphate buffered saline solution. […] Samples were obtained at 1, 4, 8, 12, 24, 48, 72, 96, 120, 168, 192, 240 and 336 hours after the single dose was administered.

GLP-1 receptor = GLP-1 receptor (Homo sapiens, UniProt P43220); conditions: IC50 with 2% HSA to IC50 with 0% HSA
GIP receptor = biological target: T1, GIP receptor (Homo sapiens, UniProt P48546); assay: Binding assay in the presence or absence of 2% human serum albumin, GIP receptor; conditions: IC50 with 2% HSA to IC50 with 0% HSA
T1 sequence (P48546 22-466): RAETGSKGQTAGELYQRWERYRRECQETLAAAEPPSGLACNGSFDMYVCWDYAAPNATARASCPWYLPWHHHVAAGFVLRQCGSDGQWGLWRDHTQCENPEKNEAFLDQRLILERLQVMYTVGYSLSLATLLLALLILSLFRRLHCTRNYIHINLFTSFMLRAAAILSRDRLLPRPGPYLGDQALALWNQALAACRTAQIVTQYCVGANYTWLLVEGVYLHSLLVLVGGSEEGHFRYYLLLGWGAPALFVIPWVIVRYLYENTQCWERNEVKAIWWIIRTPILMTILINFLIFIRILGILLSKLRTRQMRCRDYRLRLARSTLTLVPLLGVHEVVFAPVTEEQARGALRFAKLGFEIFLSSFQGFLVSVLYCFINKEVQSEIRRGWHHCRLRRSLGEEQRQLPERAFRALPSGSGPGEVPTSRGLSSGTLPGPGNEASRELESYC

Chain of GLP-1 receptor (P43220 24-463, species assumed): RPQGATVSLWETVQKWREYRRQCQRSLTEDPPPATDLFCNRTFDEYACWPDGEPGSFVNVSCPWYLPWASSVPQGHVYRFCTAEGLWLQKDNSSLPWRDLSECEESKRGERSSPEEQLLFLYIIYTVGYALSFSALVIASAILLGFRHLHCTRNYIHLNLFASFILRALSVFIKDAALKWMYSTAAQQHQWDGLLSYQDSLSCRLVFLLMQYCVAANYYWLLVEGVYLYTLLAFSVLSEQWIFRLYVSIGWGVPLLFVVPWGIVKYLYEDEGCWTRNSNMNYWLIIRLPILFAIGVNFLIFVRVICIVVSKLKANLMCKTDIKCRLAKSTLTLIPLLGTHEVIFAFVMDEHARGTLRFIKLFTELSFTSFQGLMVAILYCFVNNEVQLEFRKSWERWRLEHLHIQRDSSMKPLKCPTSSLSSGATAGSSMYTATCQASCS

With `CC[C@H](C)[C@H](NC(=O)[C@H](CC(C)C)NC(=O)[C@H](Cc1c[nH]c2ccccc12)NC(=O)[C@H](CCC(N)=O)NC(=O)[C@@H](NC(=O)[C@H](Cc1ccccc1)NC(=O)[C@H](C)NC(=O)[C@H](CCCCNC(=O)COCCOCCNC(=O)COCCOCCNC(=O)CC[C@H](NC(=O)CCCCCCCCCCCCCCCCCCP(=O)(O)O)C(=O)O)NC(=O)[C@H](CCC(N)=O)NC(=O)[C@H](C)NC(=O)[C@@H](NC(=O)[C@H](CCCCN)NC(=O)[C@H](CC(=O)O)NC(=O)[C@H](CC(C)C)NC(=O)C(C)(C)NC(=O)[C@@H](NC(=O)[C@H](CO)NC(=O)[C@H](Cc1ccc(O)cc1)NC(=O)[C@H](CC(=O)O)NC(=O)[C@H](CO)NC(=O)[C@@H](NC(=O)[C@H](Cc1ccccc1)NC(=O)[C@@H](NC(=O)CNC(=O)[C@H](CCC(=O)O)NC(=O)C(C)(C)NC(=O)[C@@H](N)Cc1ccc(O)cc1)[C@@H](C)O)[C@@H](C)O)[C@@H](C)CC)[C@@H](C)CC)C(C)C)C(=O)N[C@@H](C)C(=O)NCC(=O)NCC(=O)N1CCC[C@H]1C(=O)N[C@@H](CO)C(=O)N[C@@H](CO)C(=O)NCC(=O)N[C@@H](C)C(=O)N1CCC[C@H]1C(=O)N1CCC[C@H]1C(=O)N1CCC[C@H]1C(=O)N[C@@H](CO)C(N)=O` [Compound 4] the “mean half life compared to tirzepatide” value [1] was “twice as long”, the “GLP-1 receptor Ratio of HSA:No HSA” value (GLP-1 receptor) was 6.42 and the “GIP receptor Ratio of HSA:No HSA” value (GIP receptor) was 1.25.
